Data taken from patent US8618153B2, “Hepatitis C virus inhibitors” (Bristol-Myers Squibb Company, priority 2009, dated 2013).

tested on: HCV 1b genotype; experiment: HCV Replicon assay (HCV-neo replicon cells), 1b genotype; format: cell-based; conditions: Hepatitis C virus; HCV 1b genotype replicon; numeric value; read-out: 1b EC50 (in μM or range)
Protocol: An HCV Replicon assay was utilized in the present disclosure, and was prepared, conducted and validated as described in commonly owned PCT/US2006/022197 and in O'Boyle et al., Antimicrob. Agents Chemother., 49(4):1346-1353 (April 2005). Assay methods incorporating luciferase reporters have also been used as described (Apath.com).
HCV-neo replicon cells and replicon cells containing mutations in the NS5A region were used to test the currently described family of compounds. The compounds were determined to have more than 10-fold less inhibitory activity on cells containing mutations than wild-type cells. Thus, the compounds of the present disclosure can be effective in inhibiting the function of the HCV NS5A protein and are understood to be as effective in combinations as previously described in application PCT/US2006/022197 and commonly owned WO 04/014852. Further, the compounds of the present disclosure can be effective against the HCV 1b genotype. It should also be understood that the compounds of the present disclosure can inhibit multiple genotypes of HCV. […] In one embodiment compounds of the present disclosure are inhibitory versus 1a, 1b, 2a, 2b, 3a, 4a, and 5a genotypes. […] The compounds of the present disclosure may inhibit HCV by mechanisms in addition to or other than NS5A inhibition. In one embodiment the compounds of the present disclosure inhibit HCV replicon and in another embodiment the compounds of the present disclosure inhibit NS5A.

Structure (SMILES)	EC50 [µM]
C[C@H](NC(=O)[C@@H](c1ccccc1)N(C)C)c1ncc(-c2cccc(-c3cnc(-c4c[nH]c([C@@H]5CCCN5C(=O)[C@@H](c5ccccc5)N(C)C)n4)o3)c2)[nH]1 [Example 24, (2R)-2-(Dimethylamino)-N-((1S)-1-(4-(3-(2-(2-((2S)-1-((2R)-2-(dimethylamino)-2-phenylacetyl)-2-pyrrolidinyl)-1H-imidazol-4-yl)-1,3-oxazol-5-yl)phenyl)-1H-imidazol-2-yl)ethyl)-2-phenylacetamide]	0.00181
COC(=O)N[C@@H](C(=O)N1CCC[C@H]1c1ncc(-c2ccc(-c3cnc(-c4c[nH]c([C@@H]5CCCN5C(=O)OCc5ccccc5)n4)o3)cc2)[nH]1)c1ccccc1 [Example 27, Benzyl (2S)-2-(4-(5-(4-(2-((2S)-1-((2R)-2-((methoxycarbonyl)amino)-2-phenylacetyl)-2-pyrrolidinyl)-1H-imidazol-4-yl)phenyl)-1,3-oxazol-2-yl)-1H-imidazol-2-yl)-1-pyrrolidinecarboxylate]	0.00671
CCN(CC)[C@@H](C(=O)N1CCC[C@H]1c1nc(/C=C/c2ccc(/C=C/c3cnc([C@@H]4CCCN4C(=O)[C@@H](c4ccccc4)N(CC)CC)[nH]3)cc2)c[nH]1)c1ccccc1 [Example 35, (1R)-2-((2S)-2-(4-((E)-2-(4-((E)-2-(2-((2S)-1-((2R)-2-(diethylamino)-2-phenylacetyl)-2-pyrrolidinyl)-1H-imidazol-5-yl)vinyl)phenyl)vinyl)-1H-imidazol-2-yl)-1-pyrrolidinyl)-N,N-diethyl-2-oxo-1-phenylethanamine]	0.00014

same assay, conditions: Hepatitis C virus; HCV 1b genotype replicon; value given as range class; read-out: 1b EC50 (in μM or range)

Structure (SMILES)	EC50 [µM]
COC(=O)N[C@H](C(=O)N1CCC[C@H]1c1ncc(-c2cnc(-c3ncc(-c4cnc([C@@H]5CCCN5C(=O)[C@@H](NC(=O)OC)[C@@H](C)OC)[nH]4)s3)s2)[nH]1)[C@@H](C)OC [Example 19, Methyl ((1S,2R)-2-methoxy-1-(((2S)-2-(4-(5′-(2-((2S)-1-(N-(methoxycarbonyl)-O-methyl-L-threonyl)-2-pyrrolidinyl)-1H-imidazol-4-yl)-2,2′-bi-1,3-thiazol-5-yl)-1H-imidazol-2-yl)-1-pyrrolidinyl)carbonyl)propyl)carbamate]	0.001 to 0.01
COC(=O)N[C@@H](C)C(=O)N1CCC[C@H]1c1ncc(-c2cnc(-c3ncc(-c4cnc([C@@H]5CCCN5C(=O)[C@H](C)NC(=O)OC)[nH]4)s3)s2)[nH]1 [Example 20, Methyl ((1S)-2-((2S)-2-(4-(5′-(2-((2S)-1-(N-(methoxycarbonyl)-L-alanyl)-2-pyrrolidinyl)-1H-imidazol-4-yl)-2,2′-bi-1,3-thiazol-5-yl)-1H-imidazol-2-yl)-1-pyrrolidinyl)-1-methyl-2-oxoethyl)carbamate]	0.001 to 0.01
COC(=O)N[C@@H](C(=O)N1CCC[C@H]1c1nc(-c2ncc(-c3cccc(-c4cnc([C@@H]5CCCN5C(=O)[C@H](NC(=O)OC)c5ccccc5)[nH]4)c3)o2)c[nH]1)c1ccccc1 [Example 21, Methyl ((1R)-2-((2S)-2-(4-(3-(2-(2-((2S)-1-((2R)-2-((methoxycarbonyl)amino)-2-phenylacetyl)-2-pyrrolidinyl)-1H-imidazol-4-yl)-1,3-oxazol-5-yl)phenyl)-1H-imidazol-2-yl)-1-pyrrolidinyl)-2-oxo-1-phenylethyl)carbamate]	< 0.001
CN(C)[C@@H](C(=O)N1CCC[C@H]1c1nc(-c2ncc(-c3cccc(-c4cnc([C@@H]5CCCN5C(=O)[C@@H](c5ccccc5)N(C)C)[nH]4)c3)o2)c[nH]1)c1ccccc1 [Example 22, (1R)-2-((2S)-2-(4-(3-(2-(2-((2S)-1-((2R)-2-(Dimethylamino)-2-phenylacetyl)-2-pyrrolidinyl)-1H-imidazol-4-yl)-1,3-oxazol-5-yl)phenyl)-1H-imidazol-2-yl)-1-pyrrolidinyl)-N,N-dimethyl-2-oxo-1-phenylethanamine]	0.001 to 0.01
COC(=O)N[C@@H](C(=O)N[C@@H](C)c1ncc(-c2cccc(-c3cnc(-c4c[nH]c([C@@H]5CCCN5C(=O)[C@H](NC(=O)OC)c5ccccc5)n4)o3)c2)[nH]1)c1ccccc1 [Example 23, Methyl ((1R)-2-((2S)-2-(4-(5-(3-(2-((1S)-1-(((2R)-2-((methoxycarbonyl)amino)-2-phenylacetyl)amino)ethyl)-1H-imidazol-4-yl)phenyl)-1,3-oxazol-2-yl)-1H-imidazol-2-yl)-1-pyrrolidinyl)-2-oxo-1-phenylethyl) carbamate]	0.001 to 0.01
COC(=O)N[C@@H](C(=O)N1CCC[C@H]1c1nc(-c2ncc(-c3ccc(-c4cnc([C@@H]5CCCN5C(=O)[C@H](NC(=O)OC)c5ccccc5)[nH]4)cc3)o2)c[nH]1)c1ccccc1 [Example 25, Methyl ((1R)-2-((2S)-2-(4-(4-(2-(2-((2S)-1-((2R)-2-((methoxycarbonyl)amino)-2-phenylacetyl)-2-pyrrolidinyl)-1H-imidazol-4-yl)-1,3-oxazol-5-yl)phenyl)-1H-imidazol-2-yl)-1-pyrrolidinyl)-2-oxo-1-phenylethyl)carbamate]	0.001 to 0.01
CN(C)[C@@H](C(=O)N1CCC[C@H]1c1nc(-c2ncc(-c3ccc(-c4cnc([C@@H]5CCCN5C(=O)[C@@H](c5ccccc5)N(C)C)[nH]4)cc3)o2)c[nH]1)c1ccccc1 [Example 26, (1R)-2-((2S)-2-(4-(4-(2-(2-((2S)-1-((2R)-2-(Dimethylamino)-2-phenylacetyl)-2-pyrrolidinyl)-1H-imidazol-4-yl)-1,3-oxazol-5-yl)phenyl)-1H-imidazol-2-yl)-1-pyrrolidinyl)-N,N-dimethyl-2-oxo-1-phenylethanamine]	0.001 to 0.01
CN(C)[C@@H](C(=O)N1CCC[C@H]1c1ncc(-c2ccc(-c3cnc(-c4c[nH]c([C@@H]5CCCN5C(=O)OCc5ccccc5)n4)o3)cc2)[nH]1)c1ccccc1 [Example 28, Benzyl (2S)-2-(4-(5-(4-(2-((2S)-1-((2R)-2-((N,N-dimethyl)amino)-2-phenylacetyl)-2-pyrrolidinyl)-1H-imidazol-4-yl)phenyl)-1,3-oxazol-2-yl)-1H-imidazol-2-yl)-1-pyrrolidinecarboxylate]	0.001 to 0.01
COC(=O)N[C@@H](C(=O)N1CCC[C@H]1c1ncc(C#CC#Cc2cnc([C@@H]3CCCN3C(=O)[C@H](NC(=O)OC)c3ccccc3)[nH]2)[nH]1)c1ccccc1 [Example 29, Dimethyl (1R,1′R)-2,2′-((2S,2′S)-2,2′-(5,5′-(buta-1,3-diyne-1,4-diyl)bis(1H-imidazole-5,2-diyl))bis(pyrrolidine-2,1-diyl))bis(2-oxo-1-phenylethane-2,1-diyl)dicarbamate]	< 0.001
O=C([C@@H](c1ccccc1)N1CCCCC1)N1CCC[C@H]1c1ncc(C#CC#Cc2cnc([C@@H]3CCCN3C(=O)[C@@H](c3ccccc3)N3CCCCC3)[nH]2)[nH]1 [Example 30, (2R,2′R)-1,1′-((2S,2′S)-2,2′-(5,5′-(Buta-1,3-diyne-1,4-diyl)bis(1H-imidazole-5,2-diyl))bis(pyrrolidine-2,1-diyl))bis(2-phenyl-2-(piperidin-1-yl)ethanone)]	< 0.001
COC(=O)N[C@H](C(=O)N1CCC[C@H]1c1ncc(C#CC#Cc2cnc([C@@H]3CCCN3C(=O)[C@@H](NC(=O)OC)C(C)C)[nH]2)[nH]1)C(C)C [Example 31, Dimethyl (2S,2′S)-1,1′-((2S,2′S)-2,2′-(5,5′-(buta-1,3-diyne-1,4-diyl)bis(1H-imidazole-5,2-diyl))bis(pyrrolidine-2,1-diyl))bis(3-methyl-1-oxobutane-2,1-diyl)dicarbamate]	< 0.001
COC(=O)N[C@@H](C)C(=O)N1CCC[C@H]1c1ncc(C#CC#Cc2cnc([C@@H]3CCCN3C(=O)[C@H](C)NC(=O)OC)[nH]2)[nH]1 [Example 32, Dimethyl (2S,2′S)-1,1′-((2S,2′S)-2,2′-(5,5′-(buta-1,3-diyne-1,4-diyl)bis(1H-imidazole-5,2-diyl))bis(pyrrolidine-2,1-diyl))bis(1-oxopropane-2,1-diyl)dicarbamate]	0.01 to 10
COC(=O)N[C@H](C(=O)N1CCC[C@H]1c1ncc(C#Cc2ccc(-c3ccc(-c4cnc([C@@H]5CCCN5C(=O)[C@@H](NC(=O)OC)C(C)C)[nH]4)cc3)cc2)[nH]1)C(C)C [Example 33, Methyl ((1S)-1-(((2S)-2-(4-(4′-((2-((2S)-1-((2S)-2-((methoxycarbonyl)amino)-3-methylbutanoyl)-2-pyrrolidinyl)-1H-imidazol-4-yl)ethynyl)-4-biphenylyl)-1H-imidazol-2-yl)-1-pyrrolidinyl)carbonyl)-2-methylpropyl)carbamate]	< 0.001
COC(=O)N[C@H](C(=O)N1[C@@H]2C[C@@H]2C[C@H]1c1ncc(C#CC#Cc2cnc([C@@H]3C[C@H]4C[C@H]4N3C(=O)[C@@H](NC(=O)OC)C3CCOCC3)[nH]2)[nH]1)C1CCOCC1 [Example 34, Dimethyl (1,3-butadiyne-1,4-diylbis(1H-imidazole-4,2-diyl(1R,3S,5R)-2-azabicyclo[3.1.0]hexane-3,2-diyl((1S)-2-oxo-1-(tetrahydro-2H-pyran-4-yl)-2,1-ethanediyl)))biscarbamate]	0.001 to 0.01
COC(=O)N[C@@H](C(=O)N1CCC[C@H]1c1nc(/C=C/c2ccc(/C=C/c3cnc([C@@H]4CCCN4C(=O)[C@H](NC(=O)OC)c4ccccc4)[nH]3)cc2)c[nH]1)c1ccccc1 [Example 36, dimethyl (1,4-phenylenebis((E)-2,1-ethenediyl-1H-imidazole-4,2-diyl(2S)-2,1-pyrrolidinediyl((1R)-2-oxo-1-phenyl-2,1-ethanediyl)))biscarbamate]	< 0.001
